In US9499550B2 (BRISTOL-MYERS SQUIBB COMPANY, priority 2012, dated 2016):
Read-outs that look alike come from different tables or passages of the source.

Key:
[1] = test system: HCV genotype 1b (Con1) replicon in HUH-7 cells; assay: HCV replicon luciferase reporter assay, genotype 1b; format: cell-based; conditions: Hepatitis C virus, Huh-7, 72 h, 3 days incubation, read-out: LE_1b (EC50, range)
Method in brief: (§1)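 Replicon inhibition for both genotypes was measured as Renilla luciferase signal (EnduRen, 7.5 μM final, 2 h) after 3-day, 37° C exposure of replicon-bearing HUH-7 cells in 4% FCS DMEM, 0.5% DMSO. The 1b construct carries S1179I; the 1a H77 construct carries P1496L and S2204I. Twenty-point, 3-fold dilutions were fitted four-parametrically for EC50, and CC50 was taken from multiplexed Cell Titer-Blue.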

[2] = test system: HCV genotype 1a (H77 strain) replicon in HUH-7 cells; assay: HCV replicon luciferase reporter assay, genotype 1a; format: cell-based; conditions: Hepatitis C virus, Huh-7, 72 h, 3 days incubation, read-out: LE_1a (EC50, range)
Method in brief: as §1

[3] = HCV genotype 1b replicon luciferase
[4] = HCV genotype 1a replicon luciferase
[5] = HCV genotype 1b replicon luciferase assay, range class
[6] = HCV genotype 1a replicon luciferase assay, range class

Compound	EC50 [1, 3] [nM]	EC50 [2, 4] [nM]	also measured
CCCOc1cnc(O[C@@H]2C[C@H]3C(=O)N[C@]4(C(=O)NS(=O)(=O)C5CC5)C[C@H]4/C=C\CC[C@H](C)C[C@@H](C)[C@H](NC(=O)NC(C)(C)C(F)(F)F)C(=O)N3C2)c2ccccc12 [Compound 5098, (2R,6S,7R,9S,13aS,14aR,16aS,Z)—N-(cyclopropylsulfonyl)-7,9-dimethyl-5,16-dioxo-2-((4-propoxyisoquinolin-1-yl)oxy)-6-(3-(1,1,1-trifluoro-2-methylpropan-2-yl)ureido)-1,2,3,5,6,7,8,9,10,11,13a,14,14a,15,16,16a-hexadecahydrocyclopropa[e]pyrrolo[1,2-a][1,4]diazacyclopentadecine-14a-carboxamide]	> 87.4	> 87.4	–
C[C@H]1CC/C=C\[C@@H]2C[C@@]2(C(=O)NS(=O)(=O)C2CC2)NC(=O)[C@@H]2C[C@@H](Oc3nccc4c5c(ccc34)N(C)CCO5)CN2C(=O)[C@@H](NC(=O)OC(C)(C)C(C)(F)F)[C@H](C)C1 [Compound 5281, 3,3-difluoro-2-methylbutan-2-yl((2R,6S,7R,9S,13aS,14aR,16aS,Z)-14a-((cyclopropylsulfonyl)carbamoyl)-7,9-dimethyl-2-((4-methyl-3,4-dihydro-2H-[1,4]oxazino[2,3-f]isoquinolin-7-yl)oxy)-5,16-dioxo-1,2,3,5,6,7,8,9,10,11,13a,14,14a,15,16,16a-hexadecahydrocyclopropa[e]pyrrolo[1,2-a][1,4]diazacyclopentadecin-6-yl)carbamate]	< 5.46	< 5.46	–
COc1ccc2c(O[C@@H]3C[C@H]4C(=O)N[C@]5(C(=O)NS(=O)(=O)C6CC6)C[C@H]5/C=C\CC[C@@H](C)C[C@@H](C)[C@H](NC(=O)O[C@@H]5C[C@@H]6C[C@@H]6C5)C(=O)N4C3)nc(-c3ccc(F)cc3)cc2c1 [Compound 3046, (1R,3r,5S)-bicyclo[3.1.0]hexan-3-yl((2R,6S,7R,9R,13aS,14aR,16aS,Z)-14a-((cyclopropylsulfonyl)carbamoyl)-2-((3-(4-fluorophenyl)-6-methoxyisoquinolin-1-yl)oxy)-7,9-dimethyl-5,16-dioxo-1,2,3,5,6,7,8,9,10,11,13a,14,14a,15,16,16a-hexadecahydrocyclopropa[e]pyrrolo[1,2-a][1,4]diazacyclopentadecin-6-yl)carbamate]	–	–	EC50 [1, 5]: < 5.46 nM; EC50 [2, 6]: < 5.46 nM
CCOc1cc2ccnc(O[C@@H]3C[C@H]4C(=O)N[C@]5(C(=O)NS(=O)(=O)C6CC6)C[C@H]5/C=C\CC[C@@H](C)C[C@@H](CC)[C@H](NC(=O)OC(C)(C)C)C(=O)N4C3)c2cc1F [Compound 5405, tert-butyl ((2R,6S,7R,9R,13aS,14aR,16aS,Z)-14a-((cyclopropylsulfonyl)carbamoyl)-2-((6-ethoxy-7-fluoroisoquinolin-1-yl)oxy)-7-ethyl-9-methyl-5,16-dioxo-1,2,3,5,6,7,8,9,10,11,13a,14,14a,15,16,16a-hexadecahydrocyclopropa[e]pyrrolo[1,2-a][1,4]diazacyclopentadecin-6-yl)carbamate]	0.51 to 1	1.01 to 5	–
COc1ccc2c(O[C@@H]3C[C@H]4C(=O)N[C@]5(C(=O)NS(=O)(=O)C6CC6)C[C@H]5/C=C\CC[C@H](C)C[C@@H](C)[C@H](NC(=O)OC5C[C@@H]6C[C@@H]6C5)C(=O)N4C3)nc(-c3ccc(OC(C)C)cn3)cc2c1 (stereo partly drawn) [Compound 5208, (1R,3r,5S)-bicyclo[3.1.0]hexan-3-yl((2R,6S,7R,9S,13aS,14aR,16aS,Z)-14a-((cyclopropylsulfonyl)carbamoyl)-2-((3-(5-isopropoxypyridin-2-yl)-6-methoxyisoquinolin-1-yl)oxy)-7,9-dimethyl-5,16-dioxo-1,2,3,5,6,7,8,9,10,11,13a,14,14a,15,16,16a-hexadecahydrocyclopropa[e]pyrrolo[1,2-a][1,4]diazacyclopentadecin-6-yl)carbamate]	< 5.46	< 5.46	–
COc1ccc2c(O[C@@H]3C[C@H]4C(=O)N[C@]5(C(=O)NS(=O)(=O)C6CC6)C[C@H]5/C=C\CC[C@H](C)C[C@@H](C)[C@H](NC(=O)O[C@@H]5C[C@@H]6C[C@@H]6C5)C(=O)N4C3)nccc2c1F [Compound 3151, (1R,3r,5S)-bicyclo[3.1.0]hexan-3-yl((2R,6S,7R,9S,13aS,14aR,16aS,Z)-14a-((cyclopropylsulfonyl)carbamoyl)-2-((5-fluoro-6-methoxyisoquinolin-1-yl)oxy)-7,9-dimethyl-5,16-dioxo-1,2,3,5,6,7,8,9,10,11,13a,14,14a,15,16,16a-hexadecahydrocyclopropa[e]pyrrolo[1,2-a][1,4]diazacyclopentadecin-6-yl)carbamate]	–	–	EC50 [1, 5]: < 5.46 nM; EC50 [2, 6]: 4.82 to 103 nM
[2H]C([2H])([2H])C(OC(=O)N[C@@H]1C(=O)N2C[C@H](Oc3nc(-c4ccc(OC(C)C)nc4)cc4cc(OC)ccc34)C[C@H]2C(=O)N[C@]2(C(=O)NS(=O)(=O)C3CC3)C[C@H]2/C=C\CC[C@@H](C)C[C@H]1C)(C([2H])([2H])[2H])C(F)(F)F [Compound 5217, 1,1,1,3,3,3-hexadeutero-2-(trifluoromethyl)propan-2-yl((2R,6S,7R,9R,13aS,14aR,16aS,Z)-14a-((cyclopropylsulfonyl)carbamoyl)-2-((3-(6-isopropoxypyridin-3-yl)-6-methoxyisoquinolin-1-yl)oxy)-7,9-dimethyl-5,16-dioxo-1,2,3,5,6,7,8,9,10,11,13a,14,14a,15,16,16a-hexadecahydrocyclopropa[e]pyrrolo[1,2-a][1,4]diazacyclopentadecin-6-yl)carbamate]	< 5.46	< 5.46	–
COc1ccc2c(O[C@@H]3C[C@H]4C(=O)N[C@]5(C(=O)NS(=O)(=O)C6(C)CC6)C[C@H]5/C=C\CC[C@@H](C)C[C@@H](C)[C@H](NC(=O)OC(C)(C)C(F)(F)F)C(=O)N4C3)cc(-c3ccc(OC(C)C)cc3)nc2c1 [Compound 4172]	–	–	EC50 ([1]; GETYPE1B, HCV genotype 1b replicon luciferase): < 5.46 nM; EC50 ([2]; GETYPE1A, HCV genotype 1a replicon luciferase): < 5.46 nM
CCOc1cc2ccccc2c(O[C@@H]2C[C@H]3C(=O)N[C@]4(C(=O)NS(=O)(=O)C5(CF)CC5)C[C@H]4/C=C\CC[C@@H](C)C[C@@H](C)[C@H](NC(=O)OC(C)(C)C)C(=O)N3C2)n1 [Compound 6108, tert-butyl ((2R,6S,7R,9R,13aS,14aR,16aS,Z)-2-((3-ethoxyisoquinolin-1-yl)oxy)-14a-(((1-(fluoromethyl)cyclopropyl)sulfonyl)carbamoyl)-7,9-dimethyl-5,16-dioxo-1,2,3,5,6,7,8,9,10,11,13a,14,14a,15,16,16a-hexadecahydrocyclopropa[e]pyrrolo[1,2-a][1,4]diazacyclopentadecin-6-yl)carbamate]	0.1 to 0.5	0.51 to 1	–
COc1cc2ccnc(O[C@@H]3C[C@H]4C(=O)N[C@]5(C(=O)NS(=O)(=O)C6(F)CC6)C[C@H]5/C=C\CC[C@@H](C)C[C@@H](C)[C@H](NC(=O)OCC(C)(C)C)C(=O)N4C3)c2cc1F [Compound 4051, neopentyl (2R,6S,7R,9R,13aS,14aR,16aS,Z)-2-(7-fluoro-6-methoxyisoquinolin-1-yloxy)-14a-(1-fluorocyclopropylsulfonylcarbamoyl)-7,9-dimethyl-5,16-dioxo-1,2,3,5,6,7,8,9,10,11,13a,14,14a,15,16,16a-hexadecahydrocyclopropa[e]pyrrolo[1,2-a][1,4]diazacyclopentadecin-6-ylcarbamate]	< 5.46	< 5.46	–
CC[C@@H]1C[C@H](C)CC/C=C\[C@@H]2C[C@@]2(C(=O)NS(=O)(=O)C2(C)CC2)NC(=O)[C@@H]2C[C@@H](Oc3nc(OC)cc4cc(F)ccc34)CN2C(=O)[C@H]1NC(=O)OC(C)(C)C(C)(F)F [Compound 3216, 3,3-difluoro-2-methylbutan-2-yl((2R,6S,7R,9R,13aS,14aR,16aS,Z)-7-ethyl-2-((6-fluoro-3-methoxyisoquinolin-1-yl)oxy)-9-methyl-14a-(((1-methylcyclopropyl)sulfonyl)carbamoyl)-5,16-dioxo-1,2,3,5,6,7,8,9,10,11,13a,14,14a,15,16,16a-hexadecahydrocyclopropa[e]pyrrolo[1,2-a][1,4]diazacyclopentadecin-6-yl)carbamate]	0.1 to 0.5	1.01 to 5	–
CCOc1nnc(O[C@@H]2C[C@H]3C(=O)N[C@]4(C(=O)NS(=O)(=O)C5(C)CC5)C[C@H]4/C=C\CC[C@@H](C)C[C@@H](C)[C@H](NC(=O)OC(C)(C)C(F)(F)F)C(=O)N3C2)c2ccccc12 [Compound 5031, 1,1,1-trifluoro-2-methylpropan-2-yl((2R,6S,7R,9R,13aS,14aR,16aS,Z)-2-((4-ethoxyphthalazin-1-yl)oxy)-7,9-dimethyl-14a-(((1-methylcyclopropyl)sulfonyl)carbamoyl)-5,16-dioxo-1,2,3,5,6,7,8,9,10,11,13a,14,14a,15,16,16a-hexadecahydrocyclopropa[e]pyrrolo[1,2-a][1,4]diazacyclopentadecin-6-yl)carbamate]	< 5.46	< 5.46	–
COc1ccc2c(O[C@@H]3C[C@H]4C(=O)N[C@]5(C(=O)NS(=O)(=O)C6(C)CC6)C[C@H]5/C=C\CC[C@@H](C)C[C@@H](C)[C@H](NC(=O)OC(C)(C)C)C(=O)N4C3)nc(-c3ccc(F)cc3)cc2c1 [Compound 3082, tert-butyl ((2R,6S,7R,9R,13aS,14aR,16aS,Z)-2-((3-(4-fluorophenyl)-6-methoxyisoquinolin-1-yl)oxy)-7,9-dimethyl-14a-(((1-methylcyclopropyl)sulfonyl)carbamoyl)-5,16-dioxo-1,2,3,5,6,7,8,9,10,11,13a,14,14a,15,16,16a-hexadecahydrocyclopropa[e]pyrrolo[1,2-a][1,4]diazacyclopentadecin-6-yl)carbamate]	–	–	EC50 [1, 5]: < 5.46 nM; EC50 [2, 6]: < 5.46 nM
